Source: article PMC9606955, “In Vitro Activity of Essential Oils Distilled from Colombian Plants against Candida auris and Other Candida Species with Different Antifungal Susceptibility Profiles” (Molecules, 2022)
Converted amounts (≈) assume the structure as drawn.

Tests used:
[1] = test system: C. albicans ATCC 10231, C. tropicalis ATCC 200956, and C. auris CDC B11903; experiment: Time–kill assay, control drugs; type: cell-based, Candida spp.; conditions: fungicidal and fungistatic control drugs
Description: Time–kill assays with the L. origanoides (thymol + p-cymene) chemotype (Code 0018) EO, thymol, FLC, and AMB against C. albicans ATCC 10231, C. tropicalis ATCC 200956, and C. auris CDC B11903 were performed according to the protocol published by Klebser et al. with some modifications. […] Absorbance at λ = 490 nm was measured every 2 h with a Multiskan SkyHigh Microplate Spectrophotometer. AMB and FLC were included as fungicidal and fungistatic control drugs, respectively.

C. krusei ATCC 6258 = experiment: MIC, CLSI M27 broth microdilution; type: cell-based, Candida krusei; conditions: C. krusei ATCC 6258, antifungal drugs; for MIC: Pichia kudriavzevii, ATCC6258, geometric mean, read-out: MIC GM
Procedure, shortened: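 Endpoint: visible growth inhibition versus control, read by eye after 24 h incubation at 35 °C. Broth microdilution in RPMI 1640-MOPS, 2.5 × 10^3 CFU/mL inoculum, compounds tested from 0.5 up to 256 µg/mL final. Reported as geometric mean and range.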

C. auris = experiment: MIC, CLSI M27 broth microdilution, several C. auris strains together; type: cell-based, Candida auris; conditions: C. auris Ca 41, Ca 45 and Ca 46 together
From the text: The fungal strains used in this study were C. albicans ATCC 10231, C. albicans ATCC 64550, C. parapsilosis ATCC 22019, C. tropicalis ATCC 750, C. tropicalis ATCC 200956 (resistant to azoles and AMB), C. glabrata LMDM 34 (resistant to echinocandins), C. metapsilosis MUM 15.12, C. orthopsilosis MUM 17.13, C. lusitaniae MUM 17.08, C. krusei ATCC 6258 (Issatchenkia orientalis ATCC 6258), and C. auris CDC B11903. Additionally, nine clinical isolates were included: C. parapsilosis Synlab 406 (FLC-resistant) and eight C. auris isolates identified by MALDI-TOF MS (Bruker Daltonics, Bremen, Germany) according to Zhao et al.. These yeasts were cultured on Sabouraud Dextrose Agar (SDA; Sigma-Aldrich, St. Louis, MO, USA) for 24 h at 35 °C.
Antifungal susceptibility testing was performed according to Clinical and Laboratory Standards Institute M27, 4th Edition (CLSI standard M27, 4th Edition). […] MICs were visually determined at the lowest concentration that produced visual inhibition compared to the growth control. […] The results were expressed as geometric means (GM) and ranges. As an antifungal susceptibility testing control, the activity of ITC and AMB against the reference strains C. krusei ATCC 6258 and C. parapsilosis ATCC 22019 was evaluated in all experiments following the CLSI standard M27, 4th Edition. […]

| SMILES | effect in time–kill assay (control drugs) [1] | MIC Range (C. krusei ATCC 6258) | MIC (C. krusei ATCC 6258) | MIC Range (C. auris) |
| --- | --- | --- | --- | --- |
| OC(Cn1cncn1)(Cn1cncn1)c1ccc(F)cc1F [FLC, fluconazole] | fungistatic | 8 µg/mL (≈ 26.1 µM) | 8 µg/mL (≈ 26.1 µM) | – |
| C[C@@H]1[C@H](O)[C@@H](C)/C=C/C=C/C=C/C=C/C=C/C=C/C=C/[C@H](O[C@@H]2O[C@H](C)[C@@H](O)[C@H](N)[C@@H]2O)C[C@@H]2O[C@](O)(C[C@@H](O)C[C@@H](O)[C@H](O)CC[C@@H](O)C[C@@H](O)CC(=O)O[C@H]1C)C[C@H](O)[C@H]2C(=O)O [AMB, amphotericin B] | fungicidal | 0.12 to 0.25 µg/mL | 0.15 µg/mL (≈ 0.162 µM) | 1 to 2 µg/mL |
